Source: patent publication US20260007601A1, “IONIZABLE CATIONIC LIPID COMPOUND AND COMPOSITION FOR DELIVERING NUCLEIC ACID AND USE THEREOF” (BEIJING YOUCAREKECHUANG PHARMACEUTICAL TECHNOLOGY CO., LTD., priority 2023, published 2026)

Assays:
[1] = Particle size and polydispersity index (PDI) of nanolipid particles, dynamic light scattering; type: physicochemical; details: LNP formulation prepared from the named cationic lipid, 25° C
Description: The particle size and polydispersity index (PDI) were determined by dynamic light scattering method using a Malvern laser particle size analyzer. 10 μL of liposome solution was diluted to 1 mL with RNase-free deionized water and added to a sample pool. Each sample was measured three times. The measurement conditions were: 90° scattering angle, 25° C.

[2] = Encapsulation rate, drug loading concentration and total RNA concentration detection (RiboGreen); type: physicochemical; details: LNP formulation of the named lipid
Description: Encapsulation rate is a key quality attribute of liposomes. It refers to the percentage of drug content encapsulated in the lipid bilayer to the total amount of drug added, which can reflect the degree of drug encapsulation in liposomes. The Chinese Pharmacopoeia stipulates that the encapsulation rate should usually not be less than 80%.
The drug loading capacity is the ratio of the amount of drug in the liposome to the total amount of drug and carrier in the liposome. The drug loading capacity directly affects the clinical application dose of the drug, so the larger the drug loading capacity, the more it can meet clinical needs. The drug loading concentration is proportional to the drug loading capacity, and the relative proportion of the drug loading concentration can represent the relative proportion of the drug loading capacity. The relative proportion of the total RNA concentration can represent the relative proportion of the amount of mRNA carried by the LNP formulation.
1×TE buffer, 0.1% Triton X-100 buffer, and RiboGreen reagent (1:200) and mRNA standard stock solution were prepared.
An appropriate amount of sample was taken and added to an appropriate amount of 1×TE buffer, which was diluted to a solution containing about 2.8 μg of the test sample per 1 mL. Then the sample was added to a 96-well plate, where 50 μL of the diluted test sample or mRNA standard stock solution was added to each well, and then added with 1×TE buffer and 0.1% Triton X-100 buffer. The samples were incubated at 37° C. for 10 minutes, and 100 μL of RiboGreen reagent (1:200) was added to each well of the 96-well plate. The plate was centrifuged, and read using an ELISA reader, and the data was processed.

293T cells [3] = assay: Fluorescence detection of Fluc-mRNA (cell transfection efficiency of LNP formulations); type: cell-based; details: for Relative light unit (RLU): LNP containing 0.3 μg Fluc-mRNA, 24 hours; for Multiples of values that equivalent to YK-201: RLU of YK-201 / RLU of the named lipid; for Multiples of values that equivalent to YK-202: RLU of YK-202 / RLU of the named lipid; for Multiples of values that equivalent to YK-209: RLU of YK-209 / RLU of the named lipid; for Ratio relative to SM-102: RLU of the named lipid / RLU of SM-102, times that of SM-102
Description: (§1) Cell recovery and passaging: 293T cells were recovered and cultured in culture dishes to the required cell number.
(§2) Plating: The cells in the culture dish were digested, counted, plated in a 96-well plate at 10,000 cells per well, or in a 12-well plate at 150,000 cells per well, and cultured overnight until the cells adhered to the wall.
(§3) Cell recovery and passage: The method was the same as in Example 3.
(§4) Plating: The method was the same as Example 3.
The LNP formulation containing 0.3 μg Fluc-mRNA (prepared according to Example 4, the LNP formulation carrier components were cationic lipids, neutral lipids, structured lipids and polymer-conjugated lipids at a molar ratio of 49:10:39.5:1.5, and the cationic lipids were cationic lipids listed in Table 1) was added to the cell culture medium of a 96-well plate, and cultured for 24 hours. After that, the corresponding reagents were added according to the instructions of the Gaussia Luciferase Assay Kit, and the fluorescence expression intensity of each well was detected by the IVIS fluorescence detection system. This experiment verified the transfection efficiency of the LNP formulation in the cell, and the specific detection results are shown in Tables 6-9.

293T cells [4] = assay: Cell survival rate assay (CCK-8); type: cell-based; details: LNP containing 1.5 μg Fluc-mRNA, 24 hours, CCK-8
Description: as §1, §2, §3, §4
The LNP formulations containing 1.5 μg Fluc-mRNA (prepared according to Example 4, the LNP formulation carrier components are cationic lipids, neutral lipids, structured lipids and polymer-conjugated lipids at a molar ratio of 49:10:39.5:1.5, wherein the cationic lipids are the cationic lipids listed in Table 1) and the Lipofectamine 3000 formulation were added to the cell culture medium of the 96-well plate, and the culture was continued for 24 hours. Then, 10 μL of CCK-8 solution was added to each well, and the culture plate was incubated in the incubator for 1 hour, and the absorbance at 450 nm was measured by a microplate reader.

female BALB/C mice = assay: Mouse in vivo imaging of Fluc-mRNA LNP formulations; design: average radiation intensity (mRNA expression): unit not given here; details: 10 μg Fluc-mRNA LNP intramuscularly
Description: The LNP formulation containing 10 μg Fluc-mRNA (prepared according to Example 4) was injected intramuscularly into female BALB/C mice aged 4 to 6 weeks and weighing 17 to 19 g, and the mice were intraperitoneally injected with fluorescent imaging substrates at specific time points (6 h, 24 h, 48 h and 7 d) after administration. The mice moved freely for 5 minutes, and then the average radiation intensity (corresponding to the fluorescence expression intensity) of the protein expressed by the mRNA carried by the LNP in the mice was detected by IVIS Spectrum small animal in vivo imager. The test results are shown in Tables 14 to 17 and FIGS. 12 to 14.

| PDI [1] [%] | Particle size [1] [nm] | Drug loading concentration [2] [µg/mL] | Encapsulation rate [2] [%] | Total RNA concentration [2] [µg/mL] | SMILES | Relative light unit (RLU) (293T cells [3]) | Multiples of values that equivalent to YK-201 (293T cells [3]) | Multiples of values that equivalent to YK-202 (293T cells [3]) | Multiples of values that equivalent to YK-209 (293T cells [3]) | Ratio relative to SM-102 (293T cells [3]) | Cell survival rate (293T cells [4]) [%] | average radiation intensity (mRNA expression) (female BALB/C mice; 6 h) | average radiation intensity (mRNA expression) (female BALB/C mice; 24 h) | average radiation intensity (mRNA expression) (female BALB/C mice; 48 h) | average radiation intensity (mRNA expression) (female BALB/C mice; 7 d) |
| --- | --- | --- | --- | --- | --- | --- | --- | --- | --- | --- | --- | --- | --- | --- | --- |
| 17.9 | 210 | 42.19 | 90.4 | 46.66 | CCCCCCCCCCOC(=O)CCCN(CCCCCC(=O)OCCC(CCCCCC)CCCCCC)CCOC(=O)SCCCN(C)C [YK-217, 3-hexylnonyl-11-(4-(decyloxy)-4-oxobutyl)-2-methyl-7-oxo-8-oxo-6-thio-2,11-diazaheptane-17-carboxylate] | 71850 | 396.42 | 416.94 | 293.09 | 0.04 | 42.27 | 24585 | 2650 | 1024 | 523 |
| 13.0 | 202 | 26.86 | 63.0 | 38.62 | CCCCCCCCCCOC(=O)CCCN(CCO)CCCCCC(=O)OCC(CCCCCCCC)CCCCCCCC [YK-009, reference compound] | 5125986 | 5.56 | 5.84 | 5.24 | 3.08 | 72.88 | 1012400 | 767850 | 128570 | 10741 |
